# Assay results taken from US5811073A, “Method for radioisotopic detection and localization of inflammation in a host” (President and Fellows of Harvard College, priority 1995, dated 1998).
# Legend:
# [1] = test system: bacterial (E. coli) inflammatory lesions (pus capsule); experiment: Biodistribution (pus capsule to contralateral tissue ratio) in rats with bacterial infection; format: in vivo; settings: for Pus Capsule and Contralateral Tissue (T/B) Ratio, biodistribution: i.v., 10 μCi/rat ^67 Ga (n=2), 5 μCi/rat ^125 IUdR (n=5), mean ± SD
# Description: (§1) A frozen sample of E. coli bacteria (clinical isolate; ATCC 9339) was used to inoculate a 10 ml trypticase soy medium (trypticase soy broth, BBL #11768, 30 g/L water), and the tube was incubated overnight at […] This culture was used to grow single colonies by streaking the sample on agar plates (100 mm petri dishes each containing 15 ml of […] in the same medium). Good colonies develop in 10-11 hours at 37° C. The agar plates containing bacterial colonies were stored upside down at 4° C. A single colony of bacteria from the agar plate was used to inoculate 10 ml trypticase soy medium, and the tube was incubated overnight at 37° C. with vigorous shaking. Two ml of this overnight culture was transferred into 100 ml trypticase soy medium and the sample incubated at 37° C. with vigorous shaking until the culture reached an OD600 of ~0.8 (in about 2 hrs). This 100 ml culture contained ~6.4×10^10 bacterial cells (1 OD600 =8×10^8 cells/ml).
# (§2) The culture was centrifuged at 5500 rpm for 5 min at 4° C. in a Sorvall SS-34 rotor, the bacterial pellet resuspended in saline to give ~2.5×10^9 bacteria/ml, and 0.1 ml of resuspended cells injected into the left thigh muscle of each anesthetized rat.
# No-carrier added radioiodinated deoxyuridine (^125 IUdR) was synthesized by the method described in the above disclosure. Commercially available gallium-67 citrate of known biodistribution characteristics was obtained, for comparison to ^125 IUdR. 24 hrs after each rat described in Example 2 received an intramuscular injection of E. coli or after each rat described in Example 1 received an intramuscular injection of turpentine oil (to permit comparison of activity in a bacterial inflammation lesions to activity in a sterile inflammation lesions) in the left rear thigh, each rat received either ^125 IUdR (about 5 μCi/rat) or gallium-67 citrate (about 10 μCi/rat) suspended in 0.1 ml saline, by injection into the tail vein.
# At one, three and 24 hrs after ^125 IUdR or gallium-67 citrate administration, the animals from each group were anesthetized, blood collected via cardiac puncture, urine aspirated from the urinary bladder, and the rats humanely sacrificed. The biodistribution of each radiopharmaceutical (measured as a function of the % injected dose/gram body weight) was then determined in various normal tissues and organs, as well as the left and right legs, the pus capsule formed within the leg and in contralateral muscle tissues (i.e., background tissues unaffected by inflammation) of equivalent weight.
# To determine the distribution of each radiopharmaceutical in various tissues of each rat (i.e., the "biodistribution" of each radiopharmaceutical), samples of background tissues and organs (blood, lung, liver, spleen, kidney, muscle and intestine), of target tissue (the pus capsule formed in the leg) and of contralateral muscle tissue (background tissue adjacent to target tissue) were obtained from each rat and weighed. Radioactivity in each sample was measured in a well-type gamma counter (from LKB, Wallac Oy, Finland). To correct for radioactive decay and permit calculation of activity in each organ or tissue as a fraction of the injected dosage of radiopharmaceutical, aliquots of the injected doses were counted at the same time that radioactivity in each sample was determined. The results were measured as a function of the percentage of injected dose/gram (% ID/g). For further reference regarding measurements of biodistribution of radiopharmaceuticals, particularly in blood, those of ordinary skill in the art may wish to refer to Baker et al., "The Laboratory Rat" (Acad.Press N.Y., 1980).
# Ab = %ID/g over contralateral muscle
# [2] = test system: bacterial (E. coli) inflammatory lesions (pus capsule); experiment: Gamma camera imaging of rats with bacterial infection; format: in vivo; parameters: key to Figure of Merit (FOM), equation (1): FOM=(At-Ab)^2/(At+Ab), from total counts target vs background; settings: i.v.; for Figure of Merit (FOM), equation (1): 0.2 mCi ^67 Ga-citrate (n=3); for Figure of Merit (FOM), equation (1) / Pus Capsule to Contralateral Tissue (T/B) Ratio, gamma camera imaging: 1.5 mCi/rat ^123 IUdR (n=4); for Figure of Merit (FOM), equation (1) / Pus Capsule to Contralateral Tissue (T/B) Ratio, gamma camera imaging / Figure of Merit (FOM), equation (2): mean ± SD; for Pus Capsule to Contralateral Tissue (T/B) Ratio, gamma camera imaging: 0.2 mCi/rat ^67 Ga (n=3); for Figure of Merit (FOM), equation (2): n=3 (^67 Ga), n=4 (^123 IUdR)
# Description: as §1, §2
# A further set of rats prepared as described in Examples 1 and 2 received intravenous injections of either ^123 IUdR (at a dose of about 1.5 mCi/rat) or gallium-67 citrate (at a dose of about 0.2 mCi/rat). After 1, 3 and 24 hours, rats from each group were anesthetized and imaged using a gamma camera (the General Electric STARCAM™ 400 fitted with parallel hole medium collimator). Anterior images were obtained 10^6 counts/frame except for the 24 h period for ^123 IUdR where a 15 min scan was carried out. A 20% window was present over the 159 keV photopeaks of ^67 Ga (93 kev, 184 keV, and 298 keV).
# Regions of interest (ROI) were drawn over the inflamed areas (3×4 pixel) and over the contralateral area in each rat. Total counts in these regions were used to calculate Target to Background (T/B) ratios and to calculate Figure of Merit (FOM; statistical significance) values using either of the following equations:
# FOM=(At -Ab)^2 /(At +Ab) (1)
# At =counts in ROI (3×4) over pus capsule; and
# Ab =counts in ROI (3×4) over contralateral muscle.
# Equation (1) is derived from the Report of the National Council on Radiation Protection and Measurements, Nuclear Medicine, "Factors Influencing the Choice and Use of Radionuclides in Diagnosis and Therapy", Report No. 70, p.79 (NRCP, Bethesda, Md., 1982). Equation (2) is derived from Rubin et al., J. Nucl. Med. 30:385-389, 1989. For purposes of reference, the disclosures of each of these publications is incorporated herein.
compound,measurement,setting,value
"O=C([O-])CC(O)(CC(=O)[O-])C(=O)[O-].[67Ga+3] [^67 Ga, gallium-67 citrate]",concentration within lesion (pus capsule) vs contralateral tissues (in words),[1]; bacterial (E. coli) inflammation,to a greater extent than in the contralateral tissues
same,"Pus Capsule and Contralateral Tissue (T/B) Ratio, biodistribution","[1]; bacterial infection, 3 h",3.21 ± 0.13
same,"Pus Capsule and Contralateral Tissue (T/B) Ratio, biodistribution","[1]; bacterial infection, 24 h",4.07 ± 1.09
same,time of accumulation at the site of inflammation (in words),"[1]; bacterial infection, FIGS. 1 and 5",did not accumulate at the site of inflammation until several hours after its administration
same,detection of the lesion in scintigraphic images (in words),"[2]; 1, 3, and 24 h",can clearly detect the lesion
same,"Figure of Merit (FOM), equation (1)",[2]; 1 h,49 ± 60
same,"Pus Capsule to Contralateral Tissue (T/B) Ratio, gamma camera imaging",[2]; 1 h,1.26 ± 0.09
same,"Figure of Merit (FOM), equation (2)",[2]; 1 h,0.26 ± 0.11
same,"Figure of Merit (FOM), equation (1)",[2]; 3 h,306 ± 210
same,"Pus Capsule to Contralateral Tissue (T/B) Ratio, gamma camera imaging",[2]; 3 h,2.01 ± 0.24
same,"Figure of Merit (FOM), equation (2)",[2]; 3 h,1.01 ± 0.29
same,"Figure of Merit (FOM), equation (1)",[2]; 24 h,231 ± 135
same,"Pus Capsule to Contralateral Tissue (T/B) Ratio, gamma camera imaging",[2]; 24 h,1.91 ± 0.15
same,"Figure of Merit (FOM), equation (2)",[2]; 24 h,0.90 ± 0.21
